# Source: US11708348B2, “Protease inhibitors for treatment of coronavirus infections” (The Scripps Research Institute, priority 2021, dated 2023)
# Like-named read-outs stand apart in the source and are kept apart here.
# System: SARS-CoV-2 strain USA-WA1/2020
# Experiment: microbe, parasite or virus in culture
# Type: cell-based
# Conditions: Severe acute respiratory syndrome coronavirus 2, HeLa-ACE2, 24 h, read-out: EC50, uM (Hela)
# [1] = HeLa-ACE2 cells, SARS-CoV-2 infection, 24 h
# [2] = HeLa-ACE2 cells, SARS-CoV-2 infection, 24 h, class symbols
Structure (SMILES),EC50 [1],EC50 [2],other results
"CC1(C)[C@@H]2[C@@H](C(=O)N[C@@H](C[C@@H]3CCNC3=O)C(=O)COC(F)(F)F)N(C(=O)C(=O)Nc3ccccc3F)C[C@@H]21 [Compound 489, (1R,2S,5S)-3-(2-((2-fluorophenyl)amino)-2-oxoacetyl)-6,6-dimethyl-N-((S)-3-oxo-1-((S)-2-oxopyrrolidin-3-yl)-4-(trifluoromethoxy)butan-2-yl)-3-azabicyclo[3.1.0]-hexane-2-carboxamide]",< 0.05 µM,–,–
"CC(C)C[C@H](C(=O)N1CC2(CC2)C[C@H]1C(=O)N[C@@H](C[C@@H]1CCNC1=O)C(=O)COC(F)(F)F)N(C)C(=O)OC(C)(C)C [Compound 645, tert-butyl methyl((R)-4-methyl-1-oxo-1-((S)-6-(((S)-3-oxo-1-((S)-2-oxopyrrolidin-3-yl)-4-(trifluoromethoxy)butan-2-yl)carbamoyl)-5-azaspiro[2.4]heptan-5-yl)pentan-2-yl)carbamate]",0.05 to 0.2 µM,–,–
"COc1cccc2[nH]c(C(=O)N[C@@H](CCCc3ccccc3)C(=O)N[C@@H](C[C@@H]3CCNC3=O)C(=O)COC(F)(F)F)cc12 [Compound 233, 4-methoxy-N-((S)-1-oxo-1-(((S)-3-oxo-1-((S)-2-oxopyrrolidin-3-yl)-4-(trifluoromethoxy)butan-2-yl)amino)-5-phenylpentan-2-yl)-1H-indole-2-carboxamide]",–,0.05 to 0.2 µM,–
"COc1ccccc1NC(=O)C(=O)N1CC2(CC2)C[C@H]1C(=O)N[C@@H](C[C@@H]1CCNC1=O)C(=O)COC(F)(F)F [Compound 575, (S)-5-(2-((2-methoxyphenyl)-amino)-2-oxoacetyl)-N-((S)-3-oxo-1-((S)-2-oxopyrrolidin-3-yl)-4-(trifluoromethoxy)butan-2-yl)-5-azaspiro[2.4]-heptane-6-carboxamide]",0.5 to 1 µM,–,–
"CC(C)C[C@H](NC(=O)C(=O)Nc1ccccc1)C(=O)N[C@@H](C[C@@H]1CCNC1=O)C(=O)COC(F)(F)F [Compound 122, N1-((S)-4-methyl-1-oxo-1-(((S)-3-oxo-1-((S)-2-oxopyrrolidin-3-yl)-4-(trifluoromethoxy)butan-2-yl)amino)pentan-2-yl)-N2-phenyloxalamide]",–,< 0.05 µM,–
"CC(C)C[C@H](NC(=O)c1cc2ccncc2[nH]1)C(=O)N[C@@H](C[C@@H]1CCNC1=O)C(=O)COC(F)(F)F [Compound 187, N-((S)-4-methyl-1-oxo-1-(((S)-3-oxo-1-((S)-2-oxopyrrolidin-3-yl)-4-(trifluoromethoxy)butan-2-yl)amino)pentan-2-yl)-1H-pyrrolo[2,3-c]pyridine-2-carboxamide]",–,0.05 to 0.2 µM,–
"Cc1ccccc1NC(=O)C(=O)N1C[C@H]2[C@@H]([C@H]1C(=O)N[C@@H](C[C@@H]1CCNC1=O)C(=O)COC(F)(F)F)C2(C)C [Compound 473, (1R,2S,5S)-6,6-dimethyl-N-((S)-3-oxo-1-((S)-2-oxopyrrolidin-3-yl)-4-(trifluoromethoxy)butan-2-yl)-3-(2-oxo-2-(o-tolylamino)acetyl)-3-azabicyclo[3.1.0]hexane-2-carboxamide]",< 0.05 µM,–,–
"Cc1c(F)cccc1NC(=O)C(=O)N[C@@H](CC(C)C)C(=O)N[C@@H](C[C@@H]1CCNC1=O)C(=O)COc1c(F)c(F)cc(F)c1F [Compound 89, N1-(3-fluoro-2-methylphenyl)-N2-((S)-4-methyl-1-oxo-1-(((S)-3-oxo-1-((S)-2-oxopyrrolidin-3-yl)-4-(2,3,5,6-tetrafluorophenoxy)butan-2-yl)amino)pentan-2-yl)oxalamide]",–,< 0.05 µM,–
"CCCC(=O)N1CC2(CC2)C[C@H]1C(=O)N[C@@H](C[C@@H]1CCNC1=O)C(=O)COC(F)(F)F [Compound 705, (S)-5-butyryl-N-((S)-3-oxo-1-((S)-2-oxopyrrolidin-3-yl)-4-(trifluoromethoxy)butan-2-yl)-5-azaspiro[2.4]heptane-6-carboxamide]",0.2 to 0.5 µM,–,–
"CC(C)C[C@H](NC(=O)C(=O)NC12CC(C1)C2)C(=O)N[C@@H](C[C@@H]1CCNC1=O)C(=O)COC(F)(F)F [Compound 191, N1-(bicyclo[1.1.1]-pentan-1-yl)-N2-((S)-4-methyl-1-oxo-1-(((S)-3-oxo-1-((S)-2-oxopyrrolidin-3-yl)-4-(trifluoromethoxy)butan-2-yl)amino)pentan-2-yl)oxalamide]",–,< 0.05 µM,–
"CC1(C)[C@@H]2[C@@H](C(=O)N[C@@H](C[C@@H]3CCNC3=O)C(=O)COC(F)(F)F)N(C(=O)c3cc(C(F)(F)F)no3)C[C@@H]21 [Compound 488, (1R,2S,5S)-6,6-dimethyl-N-((S)-3-oxo-1-((S)-2-oxo-pyrrolidin-3-yl)-4-(trifluoromethoxy)butan-2-yl)-3-(3-(trifluoromethyl)-isoxazole-5-carbonyl)-3-azabicyclo[3.1.0]-hexane-2-carboxamide]",0.05 to 0.2 µM,–,–
"CC(C)C[C@H](NC(=O)C1CCN(C(=O)C2CCCC2)CC1)C(=O)N[C@@H](C[C@@H]1CCNC1=O)C(=O)COc1c(F)c(F)cc(F)c1F [Compound 25, l-(cyclopentane-carbonyl)-N-((S)-4-methyl-1-oxo-1-(((S)-3-oxo-1-((S)-2-oxopyrrolidin-3-yl)-4-(2,3,5,6-tetrafluorophenoxy)butan-2-yl)amino)pentan-2-yl)piperidine-4-carboxamide]",–,0.5 to 1 µM,–
"O=C(Cc1ccccc1)O[C@@H](C(=O)N1C[C@@H]2CCC[C@@H]2[C@H]1C(=O)N[C@@H](C[C@@H]1CCNC1=O)C(=O)COC(F)(F)F)c1ccccc1F [Compound 622, (R)-1-(2-fluorophenyl)-2-oxo-2-((1S,3aR,6aS)-1-(((S)-3-oxo-1-((S)-2-oxopyrrolidin-3-yl)-4-(trifluoromethoxy)butan-2-yl)carbamoyl)hexahydrocyclopenta[c]-pyrrol-2(1H)-yl)ethyl 2-phenylacetate]",–,–,EC50: 0.05 to 0.2 µM
"CC(C)C[C@H](NC(=O)/C=C/c1ccccc1F)C(=O)N[C@@H](C[C@@H]1CCNC1=O)C(=O)COc1c(F)c(F)cc(F)c1F [Compound 60, (S)-2-((E)-3-(2-fluorophenyl)acrylamido)-4-methyl-N-((S)-3-oxo-1-((S)-2-oxopyrrolidin-3-yl)-4-(2,3,5,6-tetrafluorophenoxy)butan-2-yl)pentanamide]",–,0.05 to 0.2 µM,–
"COc1cccc(C)c1NC(=O)C(=O)N[C@@H](CC(C)C)C(=O)N[C@@H](C[C@@H]1CCNC1=O)C(=O)COC(F)(F)F [Compound 165, N1-(2-methoxy-6-methylphenyl)-N2-((S)-4-methyl-1-oxo-1-(((S)-3-oxo-1-((S)-2-oxopyrrolidin-3-yl)-4-(trifluoromethoxy)butan-2-yl)amino)pentan-2-yl)oxalamide]",–,< 0.05 µM,–
"Cn1ccc(NC(=O)C(=O)N2C[C@H]3[C@@H]([C@H]2C(=O)N[C@@H](C[C@@H]2CCNC2=O)C(=O)COC(F)(F)F)C3(C)C)n1 [Compound 535, (1R,2S,5S)-6,6-dimethyl-3-(2-((l-methyl-1H-pyrazol-3-yl)amino)-2-oxoacetyl)-N-((S)-3-oxo-1-((S)-2-oxopyrrolidin-3-yl)-4-(trifluoromethoxy)butan-2-yl)-3-azabicyclo-[3.1.0]hexane-2-carboxamide]",0.05 to 0.2 µM,–,–
"O=C(N[C@H]1[C@@H]2COC[C@@H]21)C(=O)N1C[C@@H]2CCC[C@@H]2[C@H]1C(=O)N[C@@H](C[C@@H]1CCNC1=O)C(=O)COC(F)(F)F [Compound 548, (1S,3aR,6aS)-2-(2-(((1R,5S,6r)-3-oxabicyclo[3.1.0]-hexan-6-yl)amino)-2-oxoacetyl)-N-((S)-3-oxo-1-((S)-2-oxopyrrolidin-3-yl)-4-(trifluoromethoxy)butan-2-yl)octahydrocyclo-penta[c]pyrrole-1-carboxamide]",0.2 to 0.5 µM,–,–
"CC[C@](C)(O)C(=O)N1C[C@H]2[C@@H]([C@H]1C(=O)N[C@@H](C[C@@H]1CCNC1=O)C(=O)COC(F)(F)F)C2(C)C [Compound 367, (1R,2S,5S)-3-((S)-2-hydroxy-2-methylbutanoyl)-6,6-dimethyl-N-((S)-3-oxo-1-((S)-2-oxopyrrolidin-3-yl)-4-(trifluoromethoxy)butan-2-yl)-3-azabicyclo[3.1.0]-hexane-2-carboxamide]",–,–,"EC50 (HeLa-ACE2 cells, SARS-CoV-2 infection, 24 h, bound printed in cell): > 1 µM"
"CC[C@@H](O)C(=O)N[C@H](CC1(C)CC1)C(=O)N[C@@H](C[C@@H]1CCNC1=O)C(=O)COC(F)(F)F [Compound 375, (R)-2-hydroxy-N-((R)-3-(l-methylcyclopropyl)-1-oxo-1-(((S)-3-oxo-l-((S)-2-oxopyrrolidin-3-yl)-4-(trifluoromethoxy)butan-2-yl)amino)propan-2-yl)butanamide]",–,0.05 to 0.2 µM,–
"CC(C)[C@@H](O)C(=O)N1CC2(CC2)C[C@H]1C(=O)N[C@@H](C[C@@H]1CCNC1=O)C(=O)COC(F)(F)F [Compound 356, (S)-5-((R)-2-hydroxy-3-methylbutanoyl)-N-((S)-3-oxo-1-((S)-2-oxopyrrolidin-3-yl)-4-(trifluoromethoxy)butan-2-yl)-5-azaspiro[2.4]heptane-6-carboxamide]",–,0.05 to 0.2 µM,–
"CC(C)C[C@H](NC(=O)C(=O)NC1CC2(COC2)C1)C(=O)N[C@@H](C[C@@H]1CCNC1=O)C(=O)COC(F)(F)F [Compound 240, N1-((S)-4-methyl-1-oxo-1-(((S)-3-oxo-1-((S)-2-oxopyrrolidin-3-yl)-4-(trifluoromethoxy)butan-2-yl)amino)pentan-2-yl)-N2-(2-oxaspiro[3.3]heptan-6-yl)oxalamide]",–,0.05 to 0.2 µM,–
"CC(C)(O)C(=O)N1C[C@@H]2CCC[C@@H]2[C@H]1C(=O)N[C@@H](C[C@@H]1CCNC1=O)C(=O)COC(F)(F)F [Compound 352, (1S,3aR,6aS)-2-(2-hydroxy-2-methylpropanoyl)-N-((S)-3-oxo-1-((S)-2-oxopyrrolidin-3-yl)-4-(trifluoromethoxy)butan-2-yl)octahydrocyclo-penta[c]pyrrole-1-carboxamide]",–,0.05 to 0.2 µM,–
